Common to all, as to details: CellTiter Glo, 120 hours incubation
For assay [1], the system named is A375 (wild type malignant melanoma cell line). The assay is described as follows: Proliferation inhibition measured by CTG, A375. The format is cell-based. The protocol: (§1) NCI-H358 is a human non-small cell lung cancer cell line with KRAS G12C mutation; AGS is a gastric cancer cell line with KRAS G12D mutation; SW480 is a colon cancer cell lines with KRAS G12V mutation; A375 is a wild type malignant melanoma cell line. The proliferation inhibitory effect of the compounds on various mutations was evaluated by determining the proliferation inhibitory activity of the compounds on these cell lines.
(§2) The assay was conducted on either 384-well plates or 96-well plates. The procedures are as follows:
(§3) The cell suspensions were added to 384- or 96-well plates (384-well plate: 40 μL; 96-well plate: 100 μL) except for peripheral wells. The plates were incubated in a carbon dioxide incubator overnight. Prepared compounds (10 concentration gradients by serial 3-fold dilution) were added to the wells. The cell plates were incubated in a carbon dioxide incubator for 120 hours. CellTiter Glo reagent (384 well plate: 25 μL; 96 well plate: 100 μL) was added to the 384- or 96-well plates. The plates were shaken for 10 minutes away from light, and incubated for 10 minutes. The plates were read by EnVision system. Inhibition curves were plotted using XLFit and IC50 values were calculated. “IC50>10 μM” is denoted by “*”, “10 μM≥IC50>1 μM” is denoted by […] is denoted by “***”, “---” means no data.

The test system of assay [2] is NCI-H358 (KRAS G12C mutation). In words: Proliferation inhibition measured by CTG, NCI-H358. The format is cell-based, human. The protocol:
as §1, §2, §3

Assay [3] concerns SW480 (colon cancer cell lines with KRAS G12V mutation). In words: Proliferation inhibition measured by CTG, SW480. The format is cell-based. The protocol: as §1, §2, §3
For assay [4], the system named is AGS (gastric cancer cell line with KRAS G12D mutation). The assay is described as follows: Proliferation inhibition measured by CTG, AGS. The format is cell-based. The protocol: as §1, §2, §3

Our source for the IC50 values is patent US20230242552A1, “Nitrogen-Containing Heterocyclic Compound, Preparation Method Therefor and Use Thereof” (280 Bio, Inc, priority 2022, published 2023).

A value given as a limit tells only on which side of the number the result lay.

On to `C[C@H]1Cc2cncc(F)c2CN1c1nc(OC[C@@H]2CCCN2C)nc2cc(-c3cccc4cccc(Cl)c34)ccc12` [Compound 20], for which the IC50 in assay [1] (Homo sapiens, A-375, 120 h) was 1 to 10 µM; in assay [2] (Homo sapiens, NCI-H358, 120 h) it was 1 to 10 µM; in assay [3] (Homo sapiens, SW480, 120 h), at most 1 µM; in assay [4] (120 h) it was at most 1 µM.

For the compound `C[C@H]1Cc2cncc(F)c2CN1c1nc(OC[C@@H]2CCCN2C)nc2c1CCN(c1cccc3cnccc13)C2` [Compound 19], the IC50 in assay [1] (Homo sapiens, A-375, 120 h) is over 10 µM; in assay [2] (Homo sapiens, NCI-H358, 120 h), 1 to 10 µM; in assay [3] (Homo sapiens, SW480, 120 h), 1 to 10 µM; in assay [4] (120 h), 1 to 10 µM.

Take `CC1Cc2cnccc2CN1c1nc(OC[C@@H]2CCCN2C)nc2c1CCN(c1cc(O)cc3cccc(Cl)c13)C2` (stereo partly drawn) [Compound 6]: the IC50 was at most 1 µM in assay [3] (Homo sapiens, SW480, 120 h) and at most 1 µM in assay [4] (120 h).

With `CC1Cc2cncc(F)c2CN1c1nc(OC[C@@H]2CCCN2C)nc2c1CCN(c1cccc3cccc(Cl)c13)C2` (single isomer, unassigned) [Compound 4-1], the IC50 in assay [1] (Homo sapiens, A-375, 120 h) is 1 to 10 µM; in assay [2] (Homo sapiens, NCI-H358, 120 h) it was 1 to 10 µM; in assay [3], 1 to 10 µM; in assay [4] it was at most 1 µM.

For the compound `C[C@@H]1Cc2cncc(F)c2CN1c1nc(OC[C@@H]2CCCCN2C)nc2c(F)c(-c3cccc4cccc(F)c34)ncc12` [Compound 36], the IC50 in assay [4] (120 h) was at most 1 µM.

Regarding `C[C@@H]1Cc2cncc(F)c2CN1c1nc(OC[C@H]2CCCCN2C)nc2c1CCN(c1cccc3cccc(F)c13)C2` [Compound 30], the IC50 was at most 1 µM in assay [1] (Homo sapiens, A-375, 120 h); at most 1 µM in assay [2] (Homo sapiens, NCI-H358, 120 h); at most 1 µM in assay [3] (Homo sapiens, SW480, 120 h); at most 1 µM in assay [4] (120 h).

As to `COc1cc2c(cn1)CCN(c1nc(OC[C@@H]3CCCN3C)nc3c1CCN(c1cccc4cccc(Cl)c14)C3)C2` [Compound 2], the IC50 in assay [1] (Homo sapiens, A-375, 120 h) fell in the range of 1 to 10 µM; in assay [2] (Homo sapiens, NCI-H358, 120 h), 1 to 10 µM; in assay [4] (120 h), 1 to 10 µM.

Regarding `CN1CCC[C@H]1COc1nc2c(c(N3CCc4cnccc4C3)n1)CCN(c1cccc3cccc(Cl)c13)C2` [Compound 1], the 50% inhibitory concentration (IC50) is at most 1 µM in assay [1] (Homo sapiens, A-375, 120 h) and at most 1 µM in assay [2] (Homo sapiens, NCI-H358, 120 h).

On to `C[C@@H]1Cc2cncc(F)c2CN1c1nc(OC[C@@H]2CCCN2C)nc2c1CCN(c1cccc3cccc(F)c13)C2` [Compound 35], for which the 50% inhibitory concentration (IC50) in assay [1] (Homo sapiens, A-375, 120 h) is at most 1 µM; in assay [4] (120 h), at most 1 µM.

For the compound `CC1Cc2cncc(F)c2CN1c1nc(OC[C@@H]2CCCN2C)nc2c1CO[C@H](c1cccc3cccc(Cl)c13)C2` (single isomer, unassigned) [Compound 11-1], the 50% inhibitory concentration (IC50) in assay [1], in assay [2] and in assay [4] was 1 to 10 µM in each case.

Consider `CC1Cc2cncc(F)c2CN1c1nc(OC[C@@H]2CCCN2C)nc2c1CCN(c1cc(O)cc3cccc(Cl)c13)C2` (stereo partly drawn) [Compound 5], for which the 50% inhibitory concentration (IC50) in assay [3] (Homo sapiens, SW480, 120 h) was at most 1 µM; in assay [4] (120 h), at most 1 µM.

Take `C[C@@H]1Cc2cncc(F)c2CN1c1nc(OC[C@@H]2CCCN2C)nc2c1CCN(c1cncc3cccc(Cl)c13)C2` [Compound 34]: the half-maximal inhibitory concentration (IC50) is at most 1 µM in assay [1] (Homo sapiens, A-375, 120 h) and at most 1 µM in assay [4] (120 h).

Consider `CC1Cc2cncc(F)c2CN1c1nc(OC[C@@H]2CCCN2C)nc2c1CCN(c1cc(O)cc3cccc(Cl)c13)C2` (stereo partly drawn) [Compound 5-2], for which the 50% inhibitory concentration (IC50) in assay [1] and in assay [2] was at most 1 µM each time.

For `CC1Cc2cncc(F)c2CN1c1nc(OC[C@@H]2CCCN2C)nc2c1CO[C@H](c1cccc3cccc(Cl)c13)C2` (single isomer, unassigned) [Compound 11-2], the IC50 in assay [1] is 1 to 10 µM; in assay [2] it was 1 to 10 µM; in assay [4], at most 1 µM.

With `CC1Cc2cncc(F)c2CN1c1nc(OC[C@@H]2CCCN2C)nc2c1CCN(c1cccc3cccc(Cl)c13)C2` (stereo partly drawn) [Compound 4], the concentration for half-maximal inhibition (IC50) in assay [3] (Homo sapiens, SW480, 120 h) is at most 1 µM; in assay [4] (120 h) it was at most 1 µM.

With `CC1Cc2cncc(F)c2CN1c1nc(OC[C@@H]2CCCN2C)nc2c1CO[C@H](c1cccc3cccc(Cl)c13)C2` (stereo partly drawn) [Compound 11], the IC50 is 1 to 10 µM in assay [1] (Homo sapiens, A-375, 120 h); 1 to 10 µM in assay [2] (Homo sapiens, NCI-H358, 120 h); at most 1 µM in assay [4] (120 h).

For the compound `CC1Cc2cncc(F)c2CN1c1nc(OC[C@@H]2CCCN2C)nc2c1CCN(c1cc(O)cc3cccc(Cl)c13)C2` (stereo partly drawn) [Compound 5-1], the 50% inhibitory concentration (IC50) in assay [1] (Homo sapiens, A-375, 120 h) was at most 1 µM; in assay [2] (Homo sapiens, NCI-H358, 120 h), at most 1 µM.
